How the values were obtained:
[1] = Cohort study of multiple myeloma patients on IV BP: risk factors for BONJ (univariate and multivariate logistic regression); format: in vivo, human
Protocol: Multiple myeloma patients who were on intravenous BP (zoledronate or pamidronate) were recruited to voluntarily participate in this Institution Review Board (IRB) approved study. These patients signed informed consents and were followed routinely in the outpatient clinic. In addition to MM treatments, patients received either pamidronate 90mg or zoledronate 4mg IV monthly. Demographic and clinical information were verified from reviewing the medical records and tabled for analysis. Certain life style factors such as smoking at any time in the past, as well as certain co-morbidities such as diabetes mellitus, and prior drugs used were among the data collected on all patients.
Patients were considered to have BONJ if all of the following three characteristics are present (American Association of Oral and Maxillofacial Surgeons position paper, J Oral Maxillofac Surg, 65(3):369-76, 2007): 1) Current or previous treatment with a bisphosphonate; 2) Exposed bone in the maxillofacial region that has persisted for more than eight weeks; and 3) No history of radiation therapy to the jaws. […]
Baseline characteristics were compared by student's t-test or chi-square tests as appropriate. Allele frequencies deviations from Hardy-Weinberg Equilibrium (HWE) were assessed using chi-square tests with one degree of freedom. […]

[2] = Chart review of BONJ incidence in bisphosphonate-treated cancer patients; format: in vivo, human; details: outpatient bone marrow transplant clinic, all patients had myeloma; pamidronate only
Description: Medical and dental charts at the University of Florida (UF) and the associated Veterans Administration Medical Center (VAMC) were reviewed. […] There were 21 males. […] Fourteen patients had modest increases in their serum creatinine concentrations. The average number of previous chemo/radiotherapy regimens was 3.5. […] Primary disease status was as follows: 12 patients in clinical remission, 5 with stable disease and 10 with progressive disease. Eight patients received statin therapy and 6 had diabetes mellitus. The median length of treatment with bisphosphonate (BP) before the diagnosis of BONJ was 28 months. BONJ involved the mandible in 21 patients, maxilla in 4 and both in 2 patients. The most frequent presentation was pain, swelling, and exposed bone (FIG. 1). […] The BONJ incidence differed among the 3 centers where these patients were treated. […] The incidence in the VAMC was 4.2% while the incidence in the Cancer Center clinic at UF was 1.7%. In the latter two groups, patients had mostly solid tumors. The results described herein are consistent with the reports of increased incidence of BONJ with greater duration of therapy and that myeloma patients are more likely to develop the complication than solid tumor patients.

## O=P(O)(O)C(O)(Cn1ccnc1)P(=O)(O)O [zoledronate]
[1]; univariate analysis, persisted in multivariate logistic regression, P=0.00029, 78 MM patients, 12 with BONJ
  association between BONJ and treatment: significant association

## NCCC(O)(P(=O)(O)O)P(=O)(O)O [pamidronate]
[2]
  BONJ incidence: 4%

## O=C1CCC(N2C(=O)c3ccccc3C2=O)C(=O)N1 (stereo not drawn) [Thalidomide]
[1]; multivariate logistic regression analysis of potential risk factors, MM patients on IV BP
  Odds Ratio for BONJ: 0.106

From patent US20130035314A1, “METHODS AND KITS FOR DETECTING RISK FACTORS FOR DEVELOPMENT OF JAW OSTEONECROSIS AND METHODS OF TREATMENT THEREOF” (priority 2010, published 2013)
